The nature of the data set: Compatibility of surfactants with copper sulfate solutions for coating fabric. Format: physicochemical.

In the case of `CCCCCCCCCCCC[N+](C)(C)CCCS(=O)(=O)O` [lauryl sulfobetaine], the “precipitation from copper sulfate solutions / solution suitable for coating” value was “did not cause precipitation”. Still for that read-out and setting: the same measure for `CCCCCCCCCCCC[N+](C)(C)[O-]` [dimethyl dodecylamine N-oxide]: “causing precipitation”. Take sodium dodecylbenzenesulfonate: the “solubility in solutions of copper sulfate” value (in solutions of copper sulfate) is “very low and insufficient solubility”. `CCCCCCCCCCCCOS(=O)(=O)[O-].[Na+]` [sodium dodecylsulfate]: the “precipitation from copper sulfate solutions / solution suitable for coating” value is recorded as “acceptable solution for coating”. The same measure, in the same setting: next, `CCCCCCCCCCCC[N+](C)(C)CC(=O)O` [dimethyl dodecylglycine betaine]: “did not cause precipitation”.

The values are drawn from US20240016245A1, “ANTIMICROBIAL FACEMASK” (BMG (British Medical Group) Limited, priority 2020, published 2024).
